The text below walks through data of patent US20260174823A1 (The Children's Medical Center Corporation, priority 2022, published 2026).

Entries after “also recorded” stand apart in the source; their conditions may differ.

For data set [1], the system named is murine model for endometriosis pain. Briefly: endometriosis-associated pain overall (von Frey plus spontaneous pain behaviors) in mouse model. The data set is classed as in vivo. The following applies: 29 to 56 dpi, vs vehicle.
In data set [2] the test system is endometriosis lesions. Put plainly: endometriosis lesion size measured with calipers in mouse model. The data set is classed as in vivo.
Data set [3] concerns murine model for endometriosis pain. Put plainly: von Frey testing of abdominal mechanical pain in non-surgical mouse model of endometriosis. The data set is classed as in vivo. The procedure: (§1) After at least one week of acclimatization, donor mice received a subcutaneous injection of 3 μg/mouse estradiol benzoate to stimulate the growth of the endometrium. Seven days later, the uteri of the donor mice were dissected into a Petri dish containing HBSS and split longitudinally with a pair of scissors. Uterine horns from each donor mouse were minced with scissors and scalpel one at the time, ensuring that the maximal diameter of each fragment was consistently smaller than 1 millimeter (mm). Each dissociated uterine horn was then injected intraperitoneally using an 18 G needle into a recipient mouse in 500 μL of HBSS. One donor mouse was used for every two endometriosis mice.
(§2) For mechanical and heat hyperalgesia tests, mice were allowed to habituate to the apparatus for at least 2 hours and during three consecutive days before the beginning of measurements. […] Pain intensity to a mechanical stimulus (mechanical hyperalgesia) in the abdominal region was measured using von Frey filaments. […] The mechanical threshold was determined by the up and down method starting with 0.4 g filament and calculated using the open-source software Up-Down Reader.
It was therefore tested whether Rimegepant is effective at reducing pain in a murine model (FIG. 1A). […] Lesion size was calculated from the mean of two measurements (width and height in mm). […]

For data set [4] the test system is unchanged. Put plainly: spontaneous pain quantification (abdominal squashing and contortions) in mouse model of endometriosis. The data set is classed as in vivo. As to the method: as §1
For spontaneous abdominal pain measurements, stretching the abdomen (abdominal contortions) and squashing of the lower abdomen against the floor were quantified. Briefly, for the abdominal contortions, mice were placed in individual chambers in a temperature-controlled (29° C.) glass plate and the number of abdominal contortions was quantified for 10 minutes.
Positive responses consist of a contraction of the abdominal muscle together with stretching of hind limbs. For abdominal squashing, the number of times the mice pressed the lower abdominal region against the floor in five minutes was quantified.
It was therefore tested whether Rimegepant is effective at reducing pain in a murine model (FIG. 1A). Endometriosis lesions were induced in 40 mice and at day 29 post-induction, mice were randomly assigned to treatment with vehicle or Rimegepant at 3, 10, or 30 mg/kg (n=10 mice per group). Treatment was performed daily by oral gavage. Mechanical abdominal pain was determined weekly, 7 to 42 days post implantation (dpi) using von Frey filaments, while abdominal squashing and contortions were determined by counting these pain behaviors. Lesion size was calculated from the mean of two measurements (width and height in mm). […]

Data set [5] has the same test system. Put plainly: endometriosis-associated pain overall (von Frey plus spontaneous pain behaviors) in mouse model. The format is in vivo. Particulars: vs vehicle. The procedure:
as §1, §2
For spontaneous abdominal pain measurements, stretching the abdomen (abdominal contortions) and squashing of the lower abdomen against the floor were quantified. […]

For data set [6] the following is noted: cited from earlier work.
In data set [7] the test system is peritoneal macrophages. Put plainly: efferocytosis assay: peritoneal macrophages with apoptotic 12z-eGFP cells. The data set is classed as cell-based, mouse. The following applies: Rimegepant 100 nM 30 minutes before CGRP 100 nM for 24 hours; apoptotic 12z-eGFP added for 1 hour.
Experimental: (§3) Peritoneal cells were collected in FACS buffer from the abdominal cavity of naïve mice. Peritoneal cavity immune cells were seeded in petri dishes in RPMI media and incubated at 37° C. in 5% CO2 for 60 minutes. Non-adherent cells were discarded, and adherent cells (macrophages) were scraped, centrifuged, and counted.
For the efferocytosis assay, macrophages (200,000 cells per well) were plated overnight onto a 96-well plate. Stimulus with CGRP (100 nM) or vehicle was performed for 24 hours. After that, etoposide-induced apoptotic 12z-eGFP were added (600,000 cells per well) to the macrophage culture and incubated for 1 hour. Cells were washed 3 times with DPBS to remove non-engulfed 12z-eGFP and then and fluorescence intensity determined. Treatment with Rimegepant (100 nM) or vehicle was performed 30 minutes before stimulus with CGRP. […]
For the efferocytosis assay, macrophages were plated overnight onto a 96-well plate and stimulus with CGRP (100 nM) or vehicle was performed for 24 h. […] Cells were washed 3 times with DPBS to remove non-engulfed 12z-eGFP and then and fluorescence intensity determined. […] Results shown are expressed as mean±SEM, n=5−12 (one-way ANOVA followed by Tukey's post hoc or Student's t-test, ****P<0.0001, p<0.001, **p<0.02, *p<0.05).
In data set [8] the test system is mouse endometrial epithelial cells (mEECs). Briefly: mEEC proliferation assay in transwell co-culture with peritoneal macrophages (CyQuant). The format is cell-based. Particulars: Rimegepant 100 nM 30 minutes before CGRP 100 nM for 24 hours.
Experimental: as §3
For experiments involving mouse epithelial endometrial cell (mEEC) proliferation, macrophages were plated (100,000 cells per well) onto tissue culture insert and left overnight with 20,000 mEEC plated on the bottom of the well. Stimulus with CGRP (100 nM) or vehicle was performed for 24 hours and then mEEC were used to determine for cell proliferation assay using CyQuant™ kit (Thermo Fisher Scientific #C7026). Treatment with Rimegepant (100 nM) or vehicle was performed 30 minutes before stimulus with CGRP.
In this experiment, peritoneal macrophages were plated on a cell culture insert and co-cultured with a mouse epithelial endometrial cell line (mEEC) in a 24-well plate. Cell growth was assessed using the CyQuant™ kit and quantification performed in a spectrophotometer (n=8 well per group).
Macrophages were plated onto tissue culture insert with mEEC plated on the bottom of the well. […] Results shown are expressed as mean±SEM, n=5−12 (one-way ANOVA followed by Tukey's post hoc or Student's t-test, ****P<0.0001, p<0.001, **p<0.02, *p<0.05).
Where [9] appears, read: nociceptor ablation in RTX-treated lesion-bearing mice.
Setting [10] is: Rimegepant 3, 10 or 30 mg/kg daily by oral gavage, 29 to 42 dpi, vs vehicle.

Turning to `C[C@@H]1[C@H](c2ccccc2)C[C@H](NC(=O)c2cnc3c(c2)C[C@@]2(C3)C(=O)Nc3ncccc32)C(=O)N1CC(F)(F)F` [Ubrogepant], the endometriosis-associated pain entry in data set [1] (Ubrogepant 50 mg/kg daily per oral gavage) is given as “significant reduction”; in data set [1] (Ubrogepant 50 mg/kg daily per oral gavage, listed as Ubrogevant) it was “reduce”. The lesion size result was “significantly smaller” in data set [2] (Ubrogepant 50 mg/kg daily per oral gavage, 29 to 56 dpi, vs vehicle) and “reduce” in data set [2] (Ubrogepant 50 mg/kg daily per oral gavage, 29 to 56 dpi, vs vehicle, listed as Ubrogevant).
Consider `C=C(C)[C@]12C[C@@H](C)[C@@]34O[C@](Cc5ccccc5)(O[C@@H]1[C@@H]3C=C(COC(=O)Cc1ccc(O)c(OC)c1)C[C@]1(O)C(=O)C(C)=C[C@@H]41)O2` [RTX, resiniferatoxin toxin], for which the evoked pain entry in data set [3] (setting [9]) was “reduced”. The spontaneous pain behaviors result in data set [4] (setting [9]) is “reduced”. Moreover, in data set [2] (setting [9]), the lesion size result is listed as “reduced”.
Regarding `CC[N+](CC)(CC)CC(=O)Nc1c(C)cccc1C` [QX-314], in data set [2] (QX-314 0.1 or 1 mg/kg daily i.p., 29 to 35 dpi, vs vehicle), the lesion size result is “reduced lesion size; also recorded: reduces”. In data set [5] (QX-314 0.1 or 1 mg/kg daily i.p., 29 to 35 dpi), the endometriosis-associated pain result is recorded as “reduced endometriosis-associated pain; also recorded: reduces”.
`N[C@@H]1c2cccnc2[C@H](OC(=O)N2CCC(n3c(=O)[nH]c4ncccc43)CC2)CC[C@H]1c1cccc(F)c1F` [Rimegepant]: in data set [6] (chronic treatment (26 weeks)), the “preclinical safety profile upon chronic treatment” value is given as “safe preclinical profile”. Also, the “adverse effects on fertility” value in data set [6] (doses as high as 60 mg/kg) was “no adverse effects on fertility”. Also, the “abdominal mechanical threshold to the von Frey fibers” value in data set [3] (setting [10]) is given as “increased”. The “efferocytosis activity of CGRP-stimulated macrophages (eGFP fluorescence intensity)” value in data set [7] is on record as “rescued; also recorded: restores normal levels of efferocytosis”. Moreover, the “growth (proliferation) of mEEC promoted by CGRP-stimulated macrophages” value in data set [8] is “inhibited; also recorded: reduces mEEC proliferation”. Further, in data set [4] (setting [10]), the “number of abdominal contortion” value is listed as “reduced” and the “number of abdominal squashing” value was “reduced”. Also, the lesion size result in data set [2] (setting [10]) is on record as “reduced lesion size; also recorded: reduces”. In data set [5] (Rimegepant 3, 10 or 30 mg/kg daily by oral gavage, 29 to 42 dpi), the endometriosis-associated pain result was “reduces endometriosis-associated pain”.

B1: Galcanezumab (antibody, chains of the INN, looked up, V domains shown)
VH: QVQLVQSGAEVKKPGSSVKVSCKASGYTFGNYWMQWVRQAPGQGLEWMGAIYEGTGKTVYIQKFADRVTITADKSTSTAYMELSSLRSEDTAVYYCARLSDYVSGFGYWGQGTTVTVSS
VL: DIQMTQSPSSLSASVGDRVTITCRASKDISKYLNWYQQKPGKAPKLLIYYTSGYHSGVPSRFSGSGSGTDFTLTISSLQPEDFATYYCQQGDALPPTFGGGTKVEIK
notes: a second monoclonal antibody antagonist of CGRP
With B1, in data set [1] (Galcanezumab 4 mg/kg subcutaneous injection), the endometriosis-associated pain result is on record as “significant reduction; also recorded: reduce”. The lesion size result in data set [2] (Galcanezumab 4 mg/kg subcutaneous injection, 29 to 56 dpi, vs vehicle) is “reduce”.

B2: Fremanezumab (antibody, chains of the INN, looked up, V domains shown)
VH: EVQLVESGGGLVQPGGSLRLSCAASGFTFSNYWISWVRQAPGKGLEWVAEIRSESDASATHYAEAVKGRFTISRDNAKNSLYLQMNSLRAEDTAVYYCLAYFDYGLAIQNYWGQGTLVTVSS
VL: EIVLTQSPATLSLSPGERATLSCKASKRVTTYVSWYQQKPGQAPRLLIYGASNRYLGIPARFSGSGSGTDFTLTISSLEPEDFAVYYCSQSYNYPYTFGQGTKLEIK
notes: a monoclonal antibody antagonist of CGRP
For B2, the endometriosis-associated pain entry in data set [1] (Fremanezumab 100 mg/kg subcutaneous injection) is given as “significant reduction; also recorded: reduce”. Also, the lesion size result in data set [2] (Fremanezumab 100 mg/kg subcutaneous injection, 29 to 56 dpi, vs vehicle) is “significantly smaller; also recorded: reduce”.
